Usually melting point stands for the temperature, or range, at which the solid turns liquid.

For the molecule `COc1ccc(-c2ccn[nH]2)cc1O[C@@H]1CCOC1` [Example 1B, 3-[4-Methoxy-3-(3R)-tetrahydrofuranyloxyphenyl]-1H-pyrazole], the melting point is 149 to 151 °C.
